# Columns and labels:
# [1] = test system: NCI-H292 tumor; test: NCI-H292 lung cancer xenograft model; type: in vivo, mice; conditions: versus control group; Antibody 2 40 mg/kg 3 times per week i.p.; Docetaxel 12 mg/kg q7d; through Day 26
# Protocol: In order to test for activity of anti-VEGFR-3 antibodies in lung cancer, the NCI-H292 xenograft model is used. Nu/nu mice (female, 7-8 weeks of age) are injected subcutaneously with 2×10^6 NCI-H292 cells/mouse. When tumors reach approximately 300 mm^3, mice are randomized by tumor size into the following treatment groups (n=15): 1) USP saline at 10 μl/g, 3 times per week, i.p., starting on day 2. 2) Antibody 2 at 40 mg/kg, 3 times per week, i.p., starting day 2. 3) Docetaxel at 12 mg/kg, q7d, starting day 1. 4) Docetaxel at 12 mg/kg, q7d, starting day 1 plus Antibody 2 at 40 mg/kg, 3 times per week, starting day 2.
# Tumor volumes are measured approximately twice a week and body weights are recorded at least twice a week for the duration of the study. At sacrifice, mice are euthanized by CO2 asphyxiation. The T/C % is calculated for each treatment group as the ratio of the relative tumor volume in the experimental groups versus the control group. Tumor growth and body weights are compared to the control group by repeated measures ANOVA through Day 26.
# [2] = test system: CAL27 tumors; test: CAL27 squamous cell carcinoma xenograft model; type: in vivo, mice; conditions: versus USP saline; Antibody 2 40 mg/kg 3 days per week; cisplatin 7 mg/kg q7d; through Day 61
# Protocol: In order to test for activity of anti-VEGFR-3 antibodies in head and neck cancer, the CAL27 xenograft model is used. CAL27 cell suspension, at 1×10^7 cells/mouse, is injected s.c. into the left flank of 60 female athymic mice. When tumors reach ˜180 mm^3, eight days after cell implantation, the mice are randomized and divided into four treatment groups (n=12): 1.) USP saline control, 0.5 ml i.p., 3 days per week 2.) Antibody 2 at 40 mg/kg, 3 days per week 3.) cisplatin at 7 mg/kg, q7d 4.) Antibody 2 at 40 mg/kg, 3 days per week+cisplatin at 7 mg/kg, q7d.
# Tumor measurements are recorded twice weekly; RM ANOVA through Day 61 is used to compare tumor growth among the treatment groups. Chi Squared tests are used to test for statistical significance in the number of tumor regressions among the treatment groups.
SMILES,T/C % [1],T/C % [2]
CC(=O)O[C@@]12CO[C@@H]1C[C@H](O)[C@@]1(C)C(=O)[C@H](O)C3=C(C)[C@@H](OC(=O)[C@H](O)[C@@H](NC(=O)OC(C)(C)C)c4ccccc4)C[C@@](O)([C@@H](OC(=O)c4ccccc4)[C@H]21)C3(C)C [Docetaxel],49%,–
N.N.[Cl][Pt][Cl] [cisplatin],–,39%

# Reference: US8784818B2, “Anti-VEGFR-3 antibody compositions” (ImClone LLC, priority 2010, dated 2014)
